Results taken from PubChem BioAssay (NCI).
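48-hour exposure; five concentrations; linearly interpolated endpoints. GI50 = concentration required for 50% inhibition of growth. At the TGI there is no net growth.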

How the values were obtained:
Experiment in all cases: growth of human tumour cells (NCI), 48 h
UO-31 renal = tested on: UO-31 renal
OVCAR-3 ovarian = tested on: OVCAR-3 ovarian
OVCAR-5 ovarian = tested on: OVCAR-5 ovarian
RPMI-8226 leukemia = tested on: RPMI-8226 leukemia
SNB-75 CNS = tested on: SNB-75 CNS
NCI-H522 lung = tested on: NCI-H522 lung
HCT-15 colon = tested on: HCT-15 colon
SF-268 CNS = tested on: SF-268 CNS
HCT-116 colon = tested on: HCT-116 colon
UACC-62 melanoma = tested on: UACC-62 melanoma
MCF7 breast = tested on: MCF7 breast
A498 renal = tested on: A498 renal
SN12C renal = tested on: SN12C renal
MDA-MB-231 breast = tested on: MDA-MB-231 breast
SK-MEL-28 melanoma = tested on: SK-MEL-28 melanoma
SF-295 CNS = tested on: SF-295 CNS
SW-620 colon = tested on: SW-620 colon
OVCAR-8 ovarian = tested on: OVCAR-8 ovarian
CCRF-CEM leukemia = tested on: CCRF-CEM leukemia
HOP-62 NSCLC = tested on: HOP-62 NSCLC
NCI-H226 lung = tested on: NCI-H226 lung
NCI-H23 lung = tested on: NCI-H23 lung
M14 melanoma = tested on: M14 melanoma
MDA-MB-435 = tested on: MDA-MB-435
CAKI-1 renal = tested on: CAKI-1 renal
KM12 colon = tested on: KM12 colon
RXF 393 renal = tested on: RXF 393 renal
PC-3 prostate = tested on: PC-3 prostate
BT-549 breast = tested on: BT-549 breast
TK-10 renal = tested on: TK-10 renal
HL-60(TB) leukemia = tested on: HL-60(TB) leukemia
786-0 renal = tested on: 786-0 renal
IGROV1 ovarian = tested on: IGROV1 ovarian
SK-OV-3 ovarian = tested on: SK-OV-3 ovarian
MALME-3M melanoma = tested on: MALME-3M melanoma
SR leukemia = tested on: SR leukemia
SK-MEL-2 melanoma = tested on: SK-MEL-2 melanoma
SNB-19 CNS = tested on: SNB-19 CNS
NCI/ADR-RES ovarian = tested on: NCI/ADR-RES ovarian
COLO 205 colon = tested on: COLO 205 colon
LOX IMVI melanoma = tested on: LOX IMVI melanoma
ACHN renal = tested on: ACHN renal
DU-145 prostate = tested on: DU-145 prostate
A549 NSCLC = tested on: A549 NSCLC
HCC-2998 colon = tested on: HCC-2998 colon
NCI-H460 lung = tested on: NCI-H460 lung
SK-MEL-5 melanoma = tested on: SK-MEL-5 melanoma
SF-539 CNS = tested on: SF-539 CNS
HOP-92 NSCLC = tested on: HOP-92 NSCLC
UACC-257 melanoma = tested on: UACC-257 melanoma
MOLT-4 leukemia = tested on: MOLT-4 leukemia
T-47D breast = tested on: T-47D breast
HS 578T breast = tested on: HS 578T breast
K-562 leukemia = tested on: K-562 leukemia

`Nc1nc(N)c2c(n1)NC(c1sc(Cl)nc1Cl)CC(c1ccc3c(c1)OCO3)=N2` (stereo not drawn) gave a GI50 (UO-31 renal) of 4.52 µM, a TGI (UO-31 renal) of 24.5 µM and a GI50 (OVCAR-3 ovarian) of 3.94 µM. It also gave a TGI (OVCAR-3 ovarian) of 17.4 µM, a GI50 (OVCAR-5 ovarian) of 6.03 µM and a TGI (OVCAR-5 ovarian) of 33 µM. The GI50 (RPMI-8226 leukemia) was 4.66 µM, the TGI (RPMI-8226 leukemia) was 25 µM and the GI50 (SNB-75 CNS) was 1.39 µM. It also gave a TGI (SNB-75 CNS) of 7.55 µM, a GI50 (NCI-H522 lung) of 2.51 µM and a TGI (NCI-H522 lung) of 13 µM. It also gave a GI50 (HCT-15 colon) of 1.07 µM, a TGI (HCT-15 colon) of 20 µM and a GI50 (SF-268 CNS) of 9.84 µM. It also gave a TGI (SF-268 CNS) of 30.2 µM, a GI50 (HCT-116 colon) of 3.42 µM and a TGI (HCT-116 colon) of 16.2 µM. The GI50 (UACC-62 melanoma) was 2.17 µM, the TGI (UACC-62 melanoma) was 18.9 µM and the GI50 (MCF7 breast) was 2.81 µM. The TGI (MCF7 breast) was 47.2 µM, the GI50 (A498 renal) was 2.3 µM and the TGI (A498 renal) was 12 µM. It also gave a GI50 (SN12C renal) of 6.55 µM, a TGI (SN12C renal) of 22.3 µM and a GI50 (MDA-MB-231 breast) of 5.81 µM. The TGI (MDA-MB-231 breast) was 22.3 µM, the GI50 (SK-MEL-28 melanoma) was 7.63 µM and the TGI (SK-MEL-28 melanoma) was 29.2 µM. For the same compound, the GI50 (SF-295 CNS) was 2.21 µM, the TGI (SF-295 CNS) was 12.3 µM and the GI50 (SW-620 colon) was 2.98 µM. It also gave a TGI (SW-620 colon) of 21.5 µM, a GI50 (OVCAR-8 ovarian) of 4.86 µM and a TGI (OVCAR-8 ovarian) of 46.9 µM. The GI50 (CCRF-CEM leukemia) was 3.02 µM, the TGI (CCRF-CEM leukemia) was 27 µM and the GI50 (HOP-62 NSCLC) was 5.32 µM. The TGI (HOP-62 NSCLC) was 22.3 µM, the GI50 (NCI-H226 lung) was 17.7 µM and the TGI (NCI-H226 lung) was 55.7 µM. The GI50 (NCI-H23 lung) was 8.87 µM, the TGI (NCI-H23 lung) was 38.2 µM and the GI50 (M14 melanoma) was 2.01 µM. The TGI (M14 melanoma) was 13.7 µM, the GI50 (MDA-MB-435) was 0.353 µM and the TGI (MDA-MB-435) was 11.6 µM. It also gave a GI50 (CAKI-1 renal) of 3.17 µM, a TGI (CAKI-1 renal) greater than 100 µM and a GI50 (KM12 colon) of 3.93 µM. For the same compound, the TGI (KM12 colon) was 21.4 µM, the GI50 (RXF 393 renal) was 1.4 µM and the TGI (RXF 393 renal) was 6.61 µM. It also gave a GI50 (PC-3 prostate) of 5.15 µM, a TGI (PC-3 prostate) of 32.4 µM and a GI50 (BT-549 breast) of 3.79 µM. It also gave a TGI (BT-549 breast) of 18.9 µM, a GI50 (TK-10 renal) of 15 µM and a TGI (TK-10 renal) of 44.2 µM. For the same compound, the GI50 (HL-60(TB) leukemia) was 3.61 µM, the TGI (HL-60(TB) leukemia) was 13.3 µM and the GI50 (786-0 renal) was 5.43 µM. The TGI (786-0 renal) was 24.8 µM, the GI50 (IGROV1 ovarian) was 10.4 µM and the TGI (IGROV1 ovarian) was 47.6 µM. For the same compound, the GI50 (SK-OV-3 ovarian) was 2.78 µM, the TGI (SK-OV-3 ovarian) was 9.77 µM and the GI50 (MALME-3M melanoma) was 14.3 µM. The TGI (MALME-3M melanoma) was 29.1 µM, the GI50 (SR leukemia) was 1.9 µM and the TGI (SR leukemia) was 16.6 µM. It also gave a GI50 (SK-MEL-2 melanoma) of 5.19 µM, a TGI (SK-MEL-2 melanoma) of 19 µM and a GI50 (SNB-19 CNS) of 4.83 µM. It also gave a TGI (SNB-19 CNS) of 48.2 µM, a GI50 (NCI/ADR-RES ovarian) of 3.55 µM and a TGI (NCI/ADR-RES ovarian) of 25.3 µM. It also gave a GI50 (COLO 205 colon) of 3.48 µM, a TGI (COLO 205 colon) of 12.7 µM and a GI50 (LOX IMVI melanoma) of 7.02 µM. It also gave a TGI (LOX IMVI melanoma) of 25.5 µM, a GI50 (ACHN renal) of 5.86 µM and a TGI (ACHN renal) of 26.4 µM. The GI50 (DU-145 prostate) was 8.45 µM, the TGI (DU-145 prostate) was 34.4 µM and the GI50 (A549 NSCLC) was 6.47 µM. For the same compound, the TGI (A549 NSCLC) was greater than 100 µM, the GI50 (HCC-2998 colon) was 6.11 µM and the TGI (HCC-2998 colon) was 20 µM. It also gave a GI50 (NCI-H460 lung) of 3.99 µM, a TGI (NCI-H460 lung) of 18.1 µM and a GI50 (SK-MEL-5 melanoma) of 3.43 µM. For the same compound, the TGI (SK-MEL-5 melanoma) was 13.3 µM, the GI50 (SF-539 CNS) was 2.22 µM and the TGI (SF-539 CNS) was 8.24 µM. The GI50 (HOP-92 NSCLC) was 4.25 µM, the TGI (HOP-92 NSCLC) was 23.8 µM and the GI50 (UACC-257 melanoma) was 14.6 µM. The TGI (UACC-257 melanoma) was 41.1 µM, the GI50 (MOLT-4 leukemia) was 5.91 µM and the TGI (MOLT-4 leukemia) was 41.9 µM. For the same compound, the GI50 (T-47D breast) was 5.36 µM, the TGI (T-47D breast) was 64.1 µM and the GI50 (HS 578T breast) was 2.35 µM. The TGI (HS 578T breast) was 31.1 µM, the GI50 (K-562 leukemia) was 0.542 µM and the TGI (K-562 leukemia) was greater than 100 µM.
